Test results from US12162918B2, “Periostin compounds for the treatment of haematological complications” (Chemotherapeutisches Forschungsinstitut Georg-Speyer-Haus, priority 2018, dated 2024).

Assays:
[1] = test system: HSC; test: Competitive, serial and limiting dilution transplantation assays of whole bone marrow; format: in vivo, mice
Experimental: (§1) SJL (CD45.1) donor mice were treated with vehicle or warfarin, euthanized and long bones were flushed, followed by RBC lysis (Life Technologies, Darmstadt, Germany). For competitive transplantation 2×10^6 total BM cells from SJL mice were co-transplanted with 1×10^6 CD45.2+ BM competitor cells into lethally irradiated (900 cGy) C57BL/6N (CD45.2+) recipient mice. For serial transplantation 2×10^6 total CD45.1+ BM cells were transplanted into lethally irradiated C57BL/6N recipient mice. Cell engraftment and chimerism were assessed by flow cytometry of peripheral blood leukocytes for CD45.1 and CD45.2 after 4, 8, 12 and 16 weeks post transplantation. In the limiting dilution experiment we treated primary CD45.1+ donor mice with vehicle or warfarin for 14 days and, consequently, transplanted 5×10^5, 12.5×10^4, 6×10^4 and 1.5×10^4 pooled BM cells into 5 CD45.2+ recipients per group adding 5×10^5 CD45.2+ supporter cells. In indicated experiments we transplanted 5,000 or 10,000 sorted CD45.1+ LKS cells from mice treated with vehicle or warfarin plus 1×10^6 CD45.2+ total BM supporter cells into CD45.2+ recipient mice.
Differences in survival were assessed by Kaplan-Meier non-parametric estimates (Log-rank test) and between groups by student's t-test. The data were presented as mean±s.d. We used L-Calc software (Stemcell Technologies, Vancouver, Canada) to calculate HSC frequency by Poisson statistics. P values≤0.05 were accepted as significant.

[2] = test system: wildtype mice; test: Measurement of the INR of warfarin-treated mice; format: in vivo; details: only at 0.5 mg/kg, vs sham-operated control mice, P=0.009
Experimental: (§2) 0.5 mg/kg/d or 0.05 mg/kg/d of warfarin, resuspended in phosphate-buffered saline was administered to mice via subcutaneously implanted osmotic minipumps (ALZET minipumps, Cupertino, CA). The osmotic minipumps were changed after 14 days (if the experiment went beyond 14 days of treatment). Sham operated (skin incision and suture) mice served as controls. Warfarin treatment continued for 10-14 days. In the xenotransplantation experiments the mice were treated with warfarin via the drinking water (or normal drinking water) at a dose of 0.72 mg/100 ml for a total of 3 days a week (Pfeilschifter et al., 2011).
A Coaguchek XS (Roche Diagnostics, Mannheim, Germany) and Coaguchek XS PT test strips were used to determine the INR of vehicle- and warfarin-treated mice.

[3] = test system: Lin− bone marrow cells; test: Culture of Lin− bone marrow cells in conditioned medium from stroma cells; format: cell-based, mice; details: conditioned medium from warfarin-treated stroma cells
Experimental: Conditioned medium was harvested from stroma from 5 mice grown in the above medium containing vehicle or warfarin for 7 days. Consequently, 100,000 Lin− cells were grown for 2-3 days in the conditioned medium and analyzed for cell counts by flow cytometry. Where indicated, the conditioned medium was concentrated using Microsep Advance Centrifugal Devices 30K Omega (Pall Life Sciences, Portsmouth, UK).

[4] = test system: Lin− and LKS cells; test: Homing assay to a warfarin-treated BMM; format: in vivo, mice; details: 18 hours after transplantation
Experimental: In the homing assay, we intravenously transplanted 9×10^6 Actin DsRed+ whole BM cells into C57BL/6N mice treated with vehicle or warfarin for 14 days. 18 hours later, we analyzed BM and spleen cells of recipient mice for the presence of DsRed+ LKS cells.

[5] = test system: Lin− cells; test: Plating of warfarin-exposed Lin− cells on untreated versus warfarin-treated stroma, with or without MK-2206; format: cell-based, mice
[6] = test system: CD45.1+ LKS cells; test: Transplantation of sorted LKS or Lin− cells from warfarin-treated mice into untreated recipients; format: in vivo
Experimental: as §1

[7] = test system: stroma cells; test: Focused gene expression analysis of stroma cells; format: cell-based, mice; details: warfarin- compared to vehicle-treated stroma cells
[8] = test system: wildtype mice; test: 5-fluorouracil-induced hematopoietic stress in warfarin-treated mice; format: in vivo
Experimental: as §2
5-fluorouracil was intraperitoneally injected every week at a dose of 75 mg/kg for a total of 4 doses or as a one time dose of 200 mg/kg. Recombinant mouse periostin (R&D Systems, Minneapolis, MN, cat. no. 2955-F2), produced in the Sf21 (baculovirus)-derived insect cell line, was administered intravenously at a dose of 2-4 μg per day and vitamin K was given at a dose of 15 mg/kg by oral gavage for four consecutive days.

[9] = test system: periostin; test: Anti-Gla coimmunoprecipitation of conditioned medium from stroma cells; format: cell-based, mice; details: warfarin-treated stroma cells, anti-gla antibody
[10] = test system: bone marrow Lin− and LKS cells; test: Apoptosis, cell cycle, pAKT and macrophages in bone marrow of warfarin-treated mice; format: in vivo
Experimental: as §2
For cell cycle analysis cells were permeabilized and fixed with the cytoperm/cytofix kit (BD Biosciences, San Jose, CA), followed by staining with an antibody to Ki67-PE (Biolegend, San Diego, CA) overnight at 4 C. Consequently, cells were washed and resuspended in PBS with DAPI (1 ng/ml). For detection of apoptosis cells were first stained for surface markers, washed with Annexin V buffer (Life Technologies, Darmstadt, Germany), stained with Annexin V-PE (Life Technologies, Darmstadt, Germany), washed with Annexin V binding buffer, resuspended in PBS with DAPI and analyzed.
The PE-labelled anti-pAKT antibody (Cell signaling, #5315, Danvers, MA) was used for intracellular flow cytometry after fixation and permeabilization of the cells.

CC(=O)CC(c1ccccc1)c1c(O)c2ccccc2oc1=O (centres unmarked) [warfarin]
function of whole bone marrow cells in serial transplantation ([1]; P=0.004 after tertiary transplantation): impaired function | function of whole bone marrow cells in competitive transplantation ([1]; P=0.04 after 16 weeks): impaired function | reduction of functional HSC in limiting dilution assay ([1]; warfarin-treated vs control mice, P=0.0006, L-Calc): 7.6 fold | international normalized ratio (INR) [2]: modest, but significant increase | Lin− cell fraction ([3]; P=0.0001): decrease | total number of hematopoietic cells ([3]; P=0.0009): decrease | myeloid cell fraction ([3]; P=0.001): decrease | homing of Lin− and LKS cells to a warfarin-treated BMM [4]: not compromised | number of pAKT+ Lin− cells ([5]; previously warfarin-exposed Lin− cells on untreated stroma, P=0.02): increased | number of hematopoietic cells ([5]; warfarin-treated Lin− cells on untreated compared to warfarin-treated stroma, P=0.009): increased number | percentage of Lin− cells in the S/G2/M phases ([5]; warfarin-treated Lin− cells on untreated compared to warfarin-treated stroma, P=0.02): increase | percentage of Lin− cells in the S/G2/M phases after transplantation into an untreated BMM ([6]; Lin− cells from a warfarin-treated BMM, P=0.04): increase | percentage of CD45.1+ donor cells in peripheral blood of recipients ([6]; equal numbers of LKS cells from warfarin-treated donors, one month after transplantation, P=0.03): higher percentage | reconstitution by warfarin-treated LKS cells ([6]; higher number of transplanted LKS cells, 16 weeks post transplantation): lower than in the case of control LKS cells | expression of C-X-C motif chemokine 12 (CxCl12) [7]: trend towards increased expression | expression of osteopontin, Runx 2, Ccl3, Angpt1, Igf1, Notch1 and Wnt7b [7]: significant decreases | expression of stem cell factor (SCF; Kitl) [7]: unchanged | leukocyte counts after 5-fluorouracil ([8]; 7 days after one-time dose of 200 mg/kg 5-fluorouracil, P=0.03): lower | survival ([8]; higher dose (0.5 mg/kg), 75 mg/kg 5-fluorouracil days 0, 7, 14, 21, P=0.0004 Log-rank): similarly shortened | survival ([8]; lower dose (0.05 mg/kg), 75 mg/kg 5-fluorouracil days 0, 7, 14, 21, P=0.02 Log-rank): similarly shortened | γ-carboxylated periostin in conditioned medium [9]: no γ-carboxylated periostin could be detected | annexin V+ DAPI+ dead LKS cells in bone marrow ([10]; after 6 weeks, P=0.03): modest increase | annexin V+ DAPI+ dead Lin− cells in bone marrow ([10]; after two weeks, P=0.038): modest increase | macrophages in the bone marrow of primary mice ([10]; warfarin vs controls): not reduced | percentage of LKS cells in the Go phase of the cell cycle ([10]; warfarin vs vehicle, P=0.005): significantly increased | pAKT+ Lin− cells in the bone marrow ([10]; warfarin-treated vs control mice, P=0.04): significant reduction
